Measurements reported in ChEMBL document CHEMBL1138432, “Cytotoxic cucurbitacin constituents from Sloanea zuliaensis” (2003).

Legend:
Type in all cases: functional
MCF7 = experiment: Cytotoxicity against human MCF7 cells
SF-268 = experiment: Cytotoxicity against human SF268 cells
NCI-H460 = experiment: Cytotoxicity against human H460 cells

Structure (SMILES)	GI50 (MCF7) [nM]	GI50 (SF-268) [nM]	GI50 (NCI-H460) [nM]
CC(=O)OC(C)(C)/C=C/C(=O)[C@](C)(O)[C@H]1[C@H](O)C[C@@]2(C)[C@@H]3CC=C4[C@@H](C[C@H](O)[C@@H](O)C4(C)C)[C@]3(C)C(=O)C[C@]12C	110	87	65
CC(C)(O)/C=C/C(=O)[C@](C)(O)[C@H]1[C@H](O)C[C@@]2(C)[C@@H]3CC=C4[C@@H](CCC(=O)C4(C)C)[C@]3(C)C(=O)C[C@]12C	41	210	32
CC(C)(O)/C=C/C(=O)[C@](C)(O)[C@H]1[C@H](O)C[C@@]2(C)[C@@H]3CC=C4[C@@H](C[C@H](O)C(=O)C4(C)C)[C@]3(C)C(=O)C[C@]12C [CUCURBITACIN D]	20	21	13
